melting point | SMILES
186 °C | CN1CC[C@@H](c2c(O)cc(O)c3c(=O)cc(-c4ccc([N+](=O)[O-])cc4Br)oc23)[C@@H]1CO
120 to 121 °C | CCCCN(C)c1nccc2ccc(C(=O)N[C@@H](Cc3cc(F)cc(F)c3)[C@H](O)CNCc3cccc(CC)c3)cc12
127 to 128 °C | COc1cc(CN2CCc3cc(O)c(OC)cc3C2)cc(OC)c1
200 °C | CC(C)(C)Oc1ccc(C(=O)N[C@H]2CC[C@H](CCN3CCN(c4nccc5c4CCO5)CC3)CC2)cc1
44 to 47 °C | CC(C#N)CNc1ccccc1[N+](=O)[O-] (stereo not drawn)
176 to 178 °C | CCCn1nc(C(F)F)nc1Cc1ccc(-c2ccccc2-c2nnn[nH]2)nc1
128 to 129 °C | COc1ccc(-c2ccc(Cl)nn2)c(OCC(O)CNC(C)C)c1 (stereo not drawn)
249 to 250 °C | CCc1nc2c(NC(=O)c3ccccc3)nc3ccccc3c2n1CCCCNS(C)(=O)=O
169 to 171 °C | CC(O)c1cccc(Nc2ccccc2C(=O)O)c1Cl (stereo not drawn)
130 to 132 °C | CCOC(=O)N(O)C(C)c1cc(C(C)(C)C)c(O)c(C(C)(C)C)c1 (stereo not drawn)
170 to 172 °C | O=C1c2ccccc2C(=O)N1CCCCn1cnc(-c2ccc([N+](=O)[O-])cc2)c1
223 to 226 °C | NC(=O)N1C(=O)Cc2cc(NC(=O)c3ccccc3)ccc21
257 to 258 °C | CCOC(=O)c1c(-c2ccccc2Cl)c2cc(C)cc(C)c2[nH]c1=O
300 to 302 °C | O=c1[nH]c2cc(Cl)c(Cl)cc2[n+]([O-])c1-c1ccccc1
189 to 190 °C | O=c1oc2cc(O)ccc2c2c1CCCCC2
104 to 105 °C | COC(=O)COc1c(C)cc(SCc2sc(-c3ccc(C(F)(F)F)cc3)nc2C)cc1C
114 to 115 °C | CCOC=Cc1ncnc2c1ncn2Cc1ccccc1
65 to 66 °C | CC(C)C1=NC2=NC(SCc3ccccc3)(SCc3ccccc3)NN2C=C1
146 to 151 °C | CCC(C)(C)c1ccc(OC(C)=O)c(C2(OC(C)=O)C(=O)c3ccccc3C2=O)c1
125 to 131 °C | CCCCOCC(O)COc1ccc(-c2nc(-c3ccc(OCC(O)COCCCC)cc3O)nc(-c3c(C)cc(C)cc3C)n2)c(O)c1 (stereo not drawn)
153 to 155 °C | CC(=O)NCCC1=CCc2ccc3c(c21)CCO3
125 to 127 °C | CC(=O)Nc1cccc2c1SC(C)C2 (stereo not drawn)
174 to 175 °C | COc1ccccc1-n1nnc2cc(F)c(NC(C)=O)cc21
71.5 to 73 °C | CCCOc1ccc(S(=O)(=O)N2CCN(CCOC(=O)CCC)CC2)cc1-c1nc2c(CCC)cn(CC)c2c(=O)[nH]1
108 to 110 °C | CCN(CC)CCNC(=O)c1cc(Cl)c(N)cc1OCCOC

melting point | SMILES
231 to 234 °C | COC(=O)c1cc(O)c2cc(N3CCOCC3)ccc2c1
173 to 175 °C | CN(C)C(=O)CCC(=NNC(N)=S)c1ccccc1
91 to 94 °C | O=C(O)c1cc(-n2nc3n(c2=O)CCCC3)c(F)cc1Cl
166 to 167 °C | CCOC(=O)c1cc(Nc2cccnc2)c(=O)n(CC)n1
284 to 286 °C | O=C1c2ccccc2C(=O)c2c1ccc(C(=O)O)c2[N+](=O)[O-]
203 to 204 °C | CC(=O)c1ccc(C(=O)Nc2ccc(-n3nc(C(F)(F)F)cc3C(F)(F)F)cc2)cc1
75.5 to 76.5 °C | CCc1ccc(-c2nc(Cl)c3ccccc3n2)cc1
204 to 206 °C | CC(C)(C)c1cc(NC=O)n[nH]1
62 °C | CN1C(=O)N(CCN=C=O)C(C)(C)C1=O
71 to 71.5 °C | Cc1cccc2c1CCN=C2c1ccc(F)cc1
245 to 246 °C | CNc1nc(C)c(C(=O)C(C#N)=CN(C)C)s1
158 to 160 °C | Brc1ccc(C2CC(n3cncn3)c3ccccc3N2)cc1 (stereo not drawn)
152 to 153 °C | CCOC(=O)C1(C(=O)OCC)CC(c2ccc(Cl)cc2N)=CN1C(C)=O
109 to 110 °C | CSc1ccc(-c2nn(CC=Cc3ccccc3)c(=O)cc2-c2ccc(Cl)cc2)cc1
199 to 200 °C | O=Cc1c2ccc3ccccc3c2cc2ccsc12
188 to 189 °C | COc1ccc(OC)c2c1CCC(Nc1ccc(O)cc1)C2 (stereo not drawn)
78 to 88 °C | CCOC(=O)C1CCN(C(=O)/C=C/c2ccc(Sc3ccc4c(c3)OCCO4)c([N+](=O)[O-])c2)CC1
194 to 195 °C | COc1cc(OC)c(C2C=CCO2)cc1C=CC(=O)c1ccc(S(N)(=O)=O)cc1 (stereo not drawn)
191 °C | Cc1nnc(NCCN2CCC(Nc3nc4ccccc4n3Cc3ccc(F)cc3)CC2)s1
230 °C | O=[N+]([O-])c1ccc(Cl)c(C=Cc2nc3ccccc3o2)c1
126 to 127 °C | COC(=O)c1ccc2scc(Cl)c2n1
172 to 174 °C | Cc1noc(NS(=O)(=O)c2ccc(-c3ccc4c(c3)OCO4)cc2)c1Br
298 to 300 °C | CCOC(=O)C1n2c3ccccc3c3c4c(c5c6ccccc6n(c5c32)CS1(=O)=O)C(=O)NC4=O (stereo not drawn)
276 to 277 °C | N#Cc1ccc(-c2ccc(-c3ccc(C#N)nc3)o2)cc1
86 to 88 °C | Brc1cccc(C2Cc3cnc(Nc4ccc(CCN5CCOCC5)cc4)nc3-c3ccccc32)c1 (stereo not drawn)

melting point | SMILES
199 to 200 °C | COc1nc2cc(F)c(Cl)c(N)c2nc1OC
> 300 °C | CN(C)c1nc(O)cc(O)n1
330 °C | CC(=O)NC1c2ccccc2-c2[nH]c(=O)c3nccn3c21 (stereo not drawn)
74 to 75 °C | CCCOC(=O)c1ccc(OC(=O)CCCC(=O)Oc2ccc(C(=O)OCCC)cc2)cc1
167 to 168 °C | O=C(NCc1cccs1)c1ccc(CN2C(=O)C3(COc4cc5c(cc43)CCO5)c3ccccc32)cc1 (stereo not drawn)
167 to 169 °C | OCC1OC(n2cnc3c(NCCc4csc5ccc(Cl)cc45)ncnc32)C(O)C1O (stereo not drawn)
162 to 168 °C | COc1ccccc1N(CCN1CCC(C(=O)c2ccc(F)cc2)CC1)S(=O)(=O)C1=CCC(=NO)C=C1
141 to 143 °C | CCOC(=O)c1ccc(-c2cccc(CN)n2)cc1
141 °C | COC(=O)c1cc(C)cc(-c2cccs2)c1NS(=O)(=O)c1ccc(OC)cc1
155 °C | Cn1c([N+](=O)[O-])cnc1COc1ccc(S(C)(=O)=O)cc1
122 to 123 °C | Cc1cccc(C)c1NC(=S)C1(C)CCc2c(C)c(O)c(C)c(C)c2O1 (stereo not drawn)
46 to 48 °C | CCCCCC(O)C#CCCCCCCC#Cc1ccc(O)c(O)c1 (stereo not drawn)
92 to 94 °C | COc1ccc(S(=O)(=O)N[C@@H](C(=O)OCc2ccccc2)C(C)C)cc1
203 to 204 °C | O=C/C=C/c1cc2ccccc2[nH]1
120 to 123 °C | OCCn1cc(C(CC2CCCCCC2)=NO)c2c(Cl)cccc21
77 to 81 °C | COc1ccc(C(C)C)cc1-c1cc(-c2nnnn2C2CCN(C(=O)OC(C)(C)C)CC2)c(OCc2ccccc2)cc1OCc1ccccc1
150 to 151 °C | Cc1c(C)c2c(c(C)c1N)OC(C)(C)C2=O
181 to 183 °C | O=C1Cc2ccccc2-c2cc(-c3ccccc3)nn21
165 to 167 °C | CCN(CC)CCNc1ccc(NCCNCCO)c2c1C(=O)c1c(O)ccc(O)c1C2=O
74 to 75 °C | Cc1cccc(-c2nccc(Cl)n2)c1
92 to 93 °C | NC(=S)c1c(F)c(F)c(F)c(F)c1F
141 to 143 °C | COc1ccc2cc(-c3noc4cc(OC)ccc34)ccc2c1
158 °C | O=[N+]([O-])c1ccc(Cl)c(NC(=S)NCCO)c1
195 to 203 °C | CCn1c(N)nc(N2CCc3ccccc3CC2)c(C#N)c1=O
142 to 143 °C | ClC12CC3CC(CC(C3)C1=C1C3CC4CC(C3)CC1C4)C2

melting point | SMILES
116 to 118 °C | O=C1CCC(C(=O)O)C(=O)N1 (stereo not drawn)
231 to 232 °C | COc1ccc2[nH]c(=O)cc(CCCl)c2c1
163 to 164 °C | CCCCc1nc(Cl)c(CO)n1Cc1ccc(-c2ccccc2-c2n[nH]c(=O)o2)cc1
135 to 136 °C | CCOc1ccc(-n2c(NCc3ccc(Cl)cc3)nc3ccc(Cl)cc32)cc1
141 to 144 °C | O=S(=O)(c1ccccc1)c1ccc2cc[nH]c2c1
230 °C | N#Cc1c(Cl)csc1N
139 to 140 °C | O=S1NC(CCCc2ccc3ccccc3c2)=NO1 (stereo not drawn)
118 °C | CCCCCCCC(O)C(O)Cc1cc(C(N)=O)ccc1C(N)=O (stereo not drawn)
105 to 108 °C | CSCC1COCc2nc3c(N)nc4ccccc4c3n21 (stereo not drawn)
172 to 173 °C | COc1ccc(N)cc1-c1nc(C)c(-c2cccnc2)[nH]1
116 to 122 °C | CN(C)c1nc(CSCCNC2=NS(=O)N=C2N)cs1 (stereo not drawn)
115 to 116 °C | CCC(O)(C(=O)NC(C)c1ccccc1)c1cc2n(c(=O)c1CO)CCC21OCCO1 (stereo not drawn)
80 to 84 °C | CC(=O)OCC1(c2ccc(F)cc2)CCC(=O)CC1
238 °C | NS(=O)(=O)c1ccc(-c2cccc(-c3nc(-c4ccc(Cl)cc4Cl)cc(C(F)(F)F)n3)c2)s1
135 to 138 °C | CCC(=O)c1cc2c(s1)CCC1CC(=O)N(c3ccc(Cl)cc3)N=C21 (stereo not drawn)
145 to 146 °C | CC(N/C(C#N)=C(\N)C#N)c1ccc(Cl)cc1 (stereo not drawn)
206 to 208 °C | Cc1ccc2c(c1)-c1ncnn1CC(=O)N2
50 to 52 °C | Cc1ccc(I(Cl)Cl)c([N+](=O)[O-])c1
117 to 119 °C | O=S(=O)(Nc1cccc(CCOCc2csc(-c3ccc(C(F)(F)F)cc3)n2)c1)C(F)(F)F
63 to 66 °C | CCN(CC)c1ccc(N)cc1C#N
190 to 192 °C | CCc1nnc2c(NC3CC3)nc3ccccc3n12
155 to 158 °C | CC(C(=O)O)c1ccc2c(c1)C(=O)c1ccccc1CN2C (stereo not drawn)
107 to 110 °C | COc1cccc(-c2cc(NC(=O)CC(=O)C(F)(F)F)[nH]n2)c1

SMILES | melting point
O=C(Nc1cnc2c(c1)nc1n2CCC1)c1cc2cc(F)ccc2n1Cc1cccc(F)c1 | 227 to 229 °C
COc1ccc(C2CNCc3c2ccc(OC)c3Cl)cc1OC (stereo not drawn) | 130 to 132 °C
CCN(CC)C(=O)c1ccc(C(c2cccc(O)c2)N2CC(C)N(CC#N)CC2C)cc1 (stereo not drawn) | 190 to 192 °C
CCC(c1ccncc1)N1CCCNS1(=O)=O (stereo not drawn) | 90 to 105 °C
CC(C)NCC(O)c1ccccc1 (stereo not drawn) | 90 °C

Source: a melting point compilation (Tetko et al.; mined from patent text by program, amines drawn as free bases though some values may be those of a salt)
